Laboratory results published in ChEMBL document CHEMBL1201862, “PubChem BioAssay data set” (2004).
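In this assay, cells in 96-well plates receive the compound at five concentrations for 48 hours. Endpoints are linearly interpolated between the surrounding concentrations. GI50: concentration for 50% inhibition of growth.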 Activity calls are given as the source filed them. No stated cut-off is given here; in the data, active = GI50 up to about 1.1 µM and inactive = higher.

Assays:
Experiment in all cases: growth of human tumour cells (NCI), 48 h
SK-MEL-5 = tested on: SK-MEL-5
CAKI-1 = tested on: CAKI-1
OVCAR-5 = tested on: OVCAR-5
RPMI-8226 = tested on: RPMI-8226
MOLT-4 = tested on: MOLT-4
SR = tested on: SR
MDA-MB-231 = tested on: MDA-MB-231
SNB-75 = tested on: SNB-75
OVCAR-8 = tested on: OVCAR-8
Malme-3M = tested on: Malme-3M
NCI-H23 = tested on: NCI-H23
SF-295 = tested on: SF-295
BT-549 = tested on: BT-549
RXF 393 = tested on: RXF 393
HT-29 = tested on: HT-29
HCT-116 = tested on: HCT-116
SW-620 = tested on: SW-620
HCC 2998 = tested on: HCC 2998
HOP-92 = tested on: HOP-92

With CCOC(=O)NC(=S)NC(C)c1ccccc1 (configuration not stated) the GI50 (SK-MEL-5) was > 100 µM (inactive), the GI50 (CAKI-1) was > 100 µM (inactive) and the GI50 (OVCAR-5) was > 100 µM (inactive). For the same compound, the GI50 (RPMI-8226) was 27.2 µM (inactive), the GI50 (MOLT-4) was 26.4 µM (inactive) and the GI50 (SR) was 56.6 µM (inactive). For the same compound, the GI50 (MDA-MB-231) was > 100 µM (inactive), the GI50 (SNB-75) was > 100 µM (inactive) and the GI50 (OVCAR-8) was > 100 µM (inactive). For the same compound, the GI50 (Malme-3M) was > 100 µM (inactive), the GI50 (NCI-H23) was > 100 µM (inactive) and the GI50 (SF-295) was > 100 µM (inactive). The GI50 (BT-549) was > 100 µM (inactive), the GI50 (RXF 393) was > 100 µM (inactive) and the GI50 (HT-29) was > 100 µM (inactive). The GI50 (HCT-116) was > 100 µM (inactive), the GI50 (SW-620) was > 100 µM (inactive) and the GI50 (HCC 2998) was > 100 µM (inactive).

With Oc1ccc2ccccc2c1/N=N/c1ccc(Br)cc1 the GI50 (SK-MEL-5) was > 100 µM (inactive), the GI50 (CAKI-1) was > 100 µM (inactive) and the GI50 (OVCAR-5) was 63 µM (inactive). The GI50 (RPMI-8226) was > 100 µM (inactive), the GI50 (MOLT-4) was > 100 µM (inactive) and the GI50 (SR) was > 100 µM (inactive). For the same compound, the GI50 (HOP-92) was 35.3 µM (inactive), the GI50 (MDA-MB-231) was > 100 µM (inactive) and the GI50 (SNB-75) was 95.5 µM (inactive). The GI50 (OVCAR-8) was > 100 µM (inactive), the GI50 (Malme-3M) was 66.1 µM (inactive) and the GI50 (NCI-H23) was > 100 µM (inactive). The GI50 (SF-295) was 28.9 µM (inactive), the GI50 (BT-549) was > 100 µM (inactive) and the GI50 (RXF 393) was > 100 µM (inactive). For the same compound, the GI50 (HT-29) was > 100 µM (inactive), the GI50 (HCT-116) was > 100 µM (inactive) and the GI50 (SW-620) was > 100 µM (inactive).

CCOC(=O)c1c(O)nc2cccc3c2c1-c1cccnc1S3 was tested, and the GI50 (SK-MEL-5) was 11.7 µM (inactive), the GI50 (CAKI-1) was 16.7 µM (inactive) and the GI50 (OVCAR-5) was 24 µM (inactive). For the same compound, the GI50 (RPMI-8226) was 17.5 µM (inactive), the GI50 (MOLT-4) was 16.9 µM (inactive) and the GI50 (SR) was 28.6 µM (inactive). The GI50 (MDA-MB-231) was 39 µM (inactive), the GI50 (SNB-75) was 21.2 µM (inactive) and the GI50 (OVCAR-8) was 35.5 µM (inactive). The GI50 (Malme-3M) was 34 µM (inactive), the GI50 (NCI-H23) was 21 µM (inactive) and the GI50 (SF-295) was 23.7 µM (inactive). For the same compound, the GI50 (BT-549) was 22.4 µM (inactive), the GI50 (RXF 393) was 11 µM (inactive) and the GI50 (HT-29) was 29.4 µM (inactive). The GI50 (HCT-116) was 44.5 µM (inactive), the GI50 (SW-620) was 55.3 µM (inactive) and the GI50 (HCC 2998) was 50.2 µM (inactive).

COc1cc(NS(C)(=O)=O)ccc1Nc1c2ccccc2nc2ccccc12 [AMSACRINE] was tested, and the GI50 (SK-MEL-5) was 0.319 µM (active), the GI50 (CAKI-1) was 0.0973 µM (active) and the GI50 (OVCAR-5) was 1.58 µM (inactive). The GI50 (RPMI-8226) was 0.352 µM (active), the GI50 (MOLT-4) was 0.0332 µM (active) and the GI50 (HOP-92) was 0.524 µM (active). The GI50 (MDA-MB-231) was 2.41 µM (inactive), the GI50 (SNB-75) was 0.403 µM (active) and the GI50 (OVCAR-8) was 0.571 µM (active). For the same compound, the GI50 (Malme-3M) was 0.611 µM (active), the GI50 (NCI-H23) was 0.152 µM (active) and the GI50 (SF-295) was 0.104 µM (active). For the same compound, the GI50 (BT-549) was 1.04 µM (active), the GI50 (RXF 393) was 1.55 µM (inactive) and the GI50 (HT-29) was 1.77 µM (inactive). For the same compound, the GI50 (HCT-116) was 0.955 µM (active), the GI50 (SW-620) was 0.561 µM (active) and the GI50 (HCC 2998) was 1.24 µM (inactive).
